From US20120196901A1, “TERTIARY AMIDE OREXIN RECEPTOR ANTAGONISTS” (Merck Sharp & Dohme Corp., priority 2009, published 2012)

Target: T1, OX2R (Homo sapiens, UniProt O43614)
T1 construct: expressed in transfected cells; host or cells: CHO cells (membranes)
T1 sequence (O43614 1-444): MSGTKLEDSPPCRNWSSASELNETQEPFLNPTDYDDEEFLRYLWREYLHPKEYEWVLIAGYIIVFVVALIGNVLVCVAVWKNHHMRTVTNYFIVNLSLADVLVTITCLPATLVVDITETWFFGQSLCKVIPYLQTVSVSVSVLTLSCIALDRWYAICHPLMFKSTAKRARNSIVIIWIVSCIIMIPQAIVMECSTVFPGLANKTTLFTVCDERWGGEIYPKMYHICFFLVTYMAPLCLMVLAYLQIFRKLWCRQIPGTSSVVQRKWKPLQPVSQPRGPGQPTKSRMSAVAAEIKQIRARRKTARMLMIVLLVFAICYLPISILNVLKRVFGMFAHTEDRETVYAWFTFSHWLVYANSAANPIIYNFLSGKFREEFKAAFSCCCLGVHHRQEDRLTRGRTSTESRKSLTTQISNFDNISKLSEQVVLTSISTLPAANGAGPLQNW
Assay: radioligand binding assay, membranes prepared from CHO cells expressing the OX2 receptor
Procedure: The utility of the compounds in accordance with the present invention as orexin receptor OX1R and/or OX2R antagonists may be readily determined without undue experimentation by methodology well known in the art, including the “FLIPR Ca^2+ Flux Assay” (Okumura et al., Biochem, Biophys. Res. Comm. 280:976-981, 2001). In a typical experiment the OX1 and OX2 receptor antagonistic activity of the compounds of the present invention was determined in accordance with the following experimental method. […] Within the Fluorescent Imaging Plate Reader (FLIPR, Molecular Devices), test compounds are added to the plate in a volume of 25 ul, incubated for 5 min and finally 25 ul of agonist is added. Fluorescence is measured for each well at 1 second intervals for 5 minutes and the height of each fluorescence peak is compared to the height of the fluorescence peak induced by 70 pM Ala-6,12 orexin-A with buffer in place of antagonist. For each antagonist, […] value (the concentration of compound needed to inhibit 50% of the agonist response) is determined. Alternatively, compound potency can be assessed by a radioligand binding assay (described in Bergman et. al. Bioorg. Med. Chem. Lett. 2008, 18, 1425-1430) in which the inhibition constant (ki) is determined in membranes prepared from CHO cells expressing either the OX1 or OX2 receptor. […]

| Structure (SMILES) | Ki |
| --- | --- |
| COc1ccc(CCN(C(=O)c2cccc(C)n2)C(C)CCc2ccccc2)nc1OC (centres unmarked) [Cmp 2-3, N-[2-(5,6-Dimethoxy-2-pyridinyl)ethyl]-6-methyl-N-(1-methyl-3-phenylpropyl)-2-pyridinecarboxamide] | 0.27 nM |
| COc1cccc(C(=O)N(CCc2ccc(OC)c(OC)n2)C(C)CCc2ccccc2)n1 (centres unmarked) [Cmp 2-13, N-[2-(5,6-dimethoxypyridin-2-yl)ethyl]-6-methoxy-N-(4-phenylbutan-2-yl)pyridine-2-carboxamide] | 0.14 nM |
